# Test results: ChEMBL document CHEMBL1150595, “Isolation and structure elucidation of radical scavengers from Thymus vulgaris leaves” (J Nat Prod, 2002)
# Activity calls are given as the source filed them. No cut-off for these calls is given here.
# How the values were obtained:
# [1] = system: Radical scavenging activity; assay: Antioxidant activity assessed as DPPH radical scavenging activity at drug-DPPH molar ratio of 1:2 after 15 mins; type: functional
# [2] = system: Radical scavenging activity; assay: Antioxidant activity assessed as DPPH radical scavenging activity after 1 min; type: functional
# [3] = ABTS radical scavenging activity assessed as Trolox equivalent antioxidant capacity after 1 min; type: physicochemical
# [4] = ABTS radical scavenging activity assessed as Trolox equivalent antioxidant capacity after 6 mins; type: physicochemical; details: 0.1 h
# [5] = system: Radical scavenging activity; assay: Antioxidant activity assessed as DPPH radical scavenging activity after 3 mins; type: functional
Ratio [3],Ratio [4],Structure (SMILES),inhibition [1] [%],inhibition [2] [%],Activity [5]
1.5,1.54,O=C(/C=C/c1ccc(O)c(O)c1)O[C@H](Cc1ccc(O)c(O)c1)C(=O)O [ROSMARINIC ACID],95,43,–
0.58,0.69,O=C(/C=C/c1ccc(O)c(O/C(=C\c2ccc(O)c(O)c2)C(=O)O)c1)O[C@H](Cc1ccc(O)c(O)c1)C(=O)O,96,70,Active
